In patent publication US20140206615A1, “GLP-1 AGONIST AND CARDIOVASCULAR COMPLICATIONS” (NOVO NORDISK A/S, priority 2002, published 2014):

System: BNP in heart tissue
Assay: BNP mRNA and protein levels in cardiac biopsies of STZ-treated pigs (real-time PCR, RIA)
Format: in vivo, pig
Details: streptozotocin (STZ)-treated pigs; 3.3 μg/kg s.c. once daily for 4 weeks; right atrial, left atrial and left ventricular biopsies; FIG. 1
Protocol: Hearts from 12 streptozotocin (STZ)-treated pigs were collected. The pigs were treated with STZ 2 weeks prior to dosing with either the GLP-1 derivative Arg^34, Lys^26(N^ε-(γ-Glu(N^α-hexadecanoyl)))-GLP-1(7-37) (NN2211) for 4 weeks, dose 3.3 μg/kg s.c. once daily, or vehicle. STZ-treated pigs were either hyperglycemic or glucose intolerant and had impaired insulin secretion upon oral glucose tolerance tests. BNP mRNA and protein levels in cardiac biopsies were measured with real-time PCR and RIA assays, respectively. BNP mRNA levels were normalized by β-actin mRNA levels.
BNP mRNA levels were similar in right atrial (RA), left atrial (LA) and in left ventricular (LV) biopsies from vehicle treated diabetic pigs (−GLP).

## CCCCCCCCCCCCCCCC(=O)N[C@@H](CCC(=O)NCCCC[C@H](NC(=O)[C@H](C)NC(=O)[C@H](C)NC(=O)[C@H](CCC(N)=O)NC(=O)CNC(=O)[C@H](CCC(=O)O)NC(=O)[C@H](CC(C)C)NC(=O)[C@H](Cc1ccc(O)cc1)NC(=O)[C@H](CO)NC(=O)[C@H](CO)NC(=O)[C@@H](NC(=O)[C@H](CC(=O)O)NC(=O)[C@H](CO)NC(=O)[C@@H](NC(=O)[C@H](Cc1ccccc1)NC(=O)[C@@H](NC(=O)CNC(=O)[C@H](CCC(=O)O)NC(=O)[C@H](C)NC(=O)[C@@H](N)Cc1cnc[nH]1)[C@@H](C)O)[C@@H](C)O)C(C)C)C(=O)N[C@@H](CCC(=O)O)C(=O)N[C@@H](Cc1ccccc1)C(=O)N[C@H](C(=O)N[C@@H](C)C(=O)N[C@@H](Cc1c[nH]c2ccccc12)C(=O)N[C@@H](CC(C)C)C(=O)N[C@H](C(=O)N[C@@H](CCCNC(=N)N)C(=O)NCC(=O)N[C@@H](CCCNC(=N)N)C(=O)NCC(=O)O)C(C)C)[C@@H](C)CC)C(=O)O [NN2211, Arg^34, Lys^26(N^ε-(γ-Glu(N^α-hexadecanoyl)))-GLP-1(7-37)]
  levels of BNP (BNP mRNA normalized by β-actin mRNA) in cardiac biopsies vs vehicle: significantly lower
